Where “and” joins values, the source holds several entries; their conditions need not be identical. Equal values may be shown once.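 Values below derive from 48-hour exposures of cells grown in 96-well plates, with endpoints linearly interpolated between the two concentrations bracketing the appropriate inhibition level. Here, GI50 denotes the concentration required for 50% inhibition of growth. TGI: concentration producing complete growth inhibition.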
Tests used:
Experiment in all cases: inhibition of tumour cell growth, NCI panel, 48 h
A549 NSCLC = tested on: A549 NSCLC
HOP-62 NSCLC = tested on: HOP-62 NSCLC
MALME-3M melanoma = tested on: MALME-3M melanoma
MDA-MB-435 = tested on: MDA-MB-435
PC-3 prostate = tested on: PC-3 prostate
SF-539 CNS = tested on: SF-539 CNS
SK-MEL-5 melanoma = tested on: SK-MEL-5 melanoma
SK-OV-3 ovarian = tested on: SK-OV-3 ovarian
SW-620 colon = tested on: SW-620 colon
UO-31 renal = tested on: UO-31 renal

## CCN(CC)c1ccc2nc3ccc(=[N+](CC)CC)cc-3oc2c1
A549 NSCLC
  GI50: 0.826 µM
  TGI: > 100 µM
HOP-62 NSCLC
  GI50: 0.93 µM
  TGI: 32.2 µM
MALME-3M melanoma
  GI50: 0.115 µM
  TGI: 0.628 µM
MDA-MB-435
  GI50: 0.401 µM
  TGI: 1.89 µM
PC-3 prostate
  GI50: 0.0934 µM
  TGI: > 100 µM
SF-539 CNS
  GI50: 0.286 µM
  TGI: 18.1 µM
SK-MEL-5 melanoma
  GI50: 0.162 µM
  TGI: 1.17 µM
SK-OV-3 ovarian
  GI50: 0.671 µM
  TGI: 4.75 µM
SW-620 colon
  GI50: 0.0449 µM
  TGI: > 100 µM
UO-31 renal
  GI50: 2.63 µM
  TGI: 25 µM

## N#Cc1ccc(Sc2nc3ccccc3[nH]2)cc1
A549 NSCLC
  TGI: > 100 µM
HOP-62 NSCLC
  TGI: > 100 µM
MALME-3M melanoma
  TGI: > 100 µM
SF-539 CNS
  TGI: > 100 µM
SK-MEL-5 melanoma
  TGI: > 100 µM
SK-OV-3 ovarian
  TGI: > 100 µM
SW-620 colon
  TGI: > 100 µM
UO-31 renal
  TGI: > 100 µM

## CCOC(=O)C1(C)CCC(C(C(=O)O)C(=O)O)CC1=O (stereo not given)
A549 NSCLC
  TGI: > 100 µM
HOP-62 NSCLC
  TGI: > 100 µM
MALME-3M melanoma
  TGI: > 100 µM
SF-539 CNS
  TGI: > 100 µM
SK-MEL-5 melanoma
  TGI: > 100 µM
SK-OV-3 ovarian
  TGI: > 100 µM
SW-620 colon
  TGI: > 100 µM
UO-31 renal
  TGI: > 100 µM

## COc1cc(-c2nccc3[nH]c(-c4ccc5cc[nH]c5c4)nc23)cc(OC)c1OC
A549 NSCLC
  GI50: 0.0113 µM
  TGI: 1.77 µM
HOP-62 NSCLC
  GI50: < 0.01 µM
  TGI: 2.67 µM
MALME-3M melanoma
  GI50: 1.29 µM
  TGI: 3.2 µM
PC-3 prostate
  GI50: < 0.01 µM
  TGI: 4.74 µM
SF-539 CNS
  GI50: < 0.01 µM
  TGI: < 0.01 µM
SK-MEL-5 melanoma
  GI50: < 0.01 µM
  TGI: 0.563 µM
SK-OV-3 ovarian
  GI50: < 0.01 µM
  TGI: 5.66 µM
SW-620 colon
  GI50: < 0.01 µM
  TGI: 1.6 µM
UO-31 renal
  GI50: < 0.01 µM
  TGI: 2.93 µM

## CC(=O)O[C@H]1CC2C(C3CC[C@H](C(C)CCC(=O)O)[C@]31C)[C@H](OC(C)=O)C[C@@H]1CC3(CC[C@]21C)OOC1(CCC(C)CC1)OO3 (stereo not given in full)
A549 NSCLC
  TGI: 13.4 µM and 3.86 µM
HOP-62 NSCLC
  TGI: 7.39 µM and 3.49 µM
MALME-3M melanoma
  GI50: 12.5 µM and 2.73 µM
  TGI: 28.3 µM and 8.04 µM
MDA-MB-435
  TGI: 18.7 µM and 7.76 µM
PC-3 prostate
  TGI: 17.2 µM and 14.2 µM
SF-539 CNS
  GI50: 8.15 µM and 1.94 µM
  TGI: 20.6 µM and 3.86 µM
SK-MEL-5 melanoma
  GI50: 7.2 µM and 3.39 µM
  TGI: 20.1 µM and 12.5 µM
SK-OV-3 ovarian
  GI50: 10.6 µM and 3.14 µM
  TGI: 22.4 µM and 10.7 µM
SW-620 colon
  GI50: 7.42 µM and 3.55 µM
  TGI: 22.2 µM and 16 µM
UO-31 renal
  TGI: 7.91 µM and 3 µM

## Nc1nc(=S)c2c(ncn2CCO)[nH]1
A549 NSCLC
  TGI: > 100 µM
HOP-62 NSCLC
  TGI: > 100 µM
MALME-3M melanoma
  TGI: > 100 µM
SF-539 CNS
  TGI: > 100 µM
SK-MEL-5 melanoma
  TGI: > 100 µM
SK-OV-3 ovarian
  TGI: > 100 µM
SW-620 colon
  TGI: > 100 µM
UO-31 renal
  TGI: > 100 µM

## CCOC(=O)C1=C(NC)OCC1=O
A549 NSCLC
  TGI: > 100 µM
HOP-62 NSCLC
  TGI: > 100 µM
MALME-3M melanoma
  TGI: > 100 µM
SF-539 CNS
  TGI: > 100 µM
SK-MEL-5 melanoma
  TGI: > 100 µM
SK-OV-3 ovarian
  TGI: > 100 µM
SW-620 colon
  TGI: > 100 µM
UO-31 renal
  TGI: > 100 µM

## COc1ccccc1CNCCN1C(=O)c2ccc3c4c(ccc(c24)C1=O)C(=O)N(CCNCc1ccccc1OC)C3=O
A549 NSCLC
  GI50: 0.204 µM
  TGI: 0.47 µM
HOP-62 NSCLC
  GI50: 0.221 µM
  TGI: 0.603 µM
MALME-3M melanoma
  GI50: 0.386 µM
  TGI: 1.55 µM
PC-3 prostate
  GI50: 0.317 µM
  TGI: 0.963 µM
SF-539 CNS
  GI50: 0.553 µM
  TGI: 1.06 µM
SK-MEL-5 melanoma
  GI50: 0.348 µM
  TGI: 1.4 µM
SK-OV-3 ovarian
  GI50: 1.55 µM
  TGI: 3.15 µM
SW-620 colon
  GI50: 0.235 µM
  TGI: 0.591 µM
UO-31 renal
  GI50: 0.841 µM
  TGI: 2.14 µM

## CCOC(=O)/C(=C\c1cccc(C)c1)C(C)=O
A549 NSCLC
  TGI: > 100 µM
HOP-62 NSCLC
  TGI: 96.1 µM
MALME-3M melanoma
  TGI: 31.4 µM
MDA-MB-435
  TGI: 45.4 µM
PC-3 prostate
  TGI: 28.3 µM
SF-539 CNS
  TGI: 40.3 µM
SK-MEL-5 melanoma
  TGI: 32 µM
SK-OV-3 ovarian
  TGI: > 100 µM
SW-620 colon
  TGI: 27 µM
UO-31 renal
  TGI: 33.7 µM

## c1ccc(C(c2ccccc2)c2ccccn2)cc1
A549 NSCLC
  TGI: > 100 µM
HOP-62 NSCLC
  TGI: > 100 µM
MALME-3M melanoma
  TGI: > 100 µM
SF-539 CNS
  TGI: > 100 µM
SK-MEL-5 melanoma
  TGI: > 100 µM
SK-OV-3 ovarian
  TGI: > 100 µM
SW-620 colon
  TGI: > 100 µM
UO-31 renal
  TGI: > 100 µM

## COc1cc(/C=C/c2csnn2)cc(OC)c1OC
A549 NSCLC
  TGI: > 100 µM
HOP-62 NSCLC
  TGI: > 100 µM
MALME-3M melanoma
  TGI: > 100 µM
SF-539 CNS
  TGI: > 100 µM
SK-MEL-5 melanoma
  TGI: > 100 µM
SK-OV-3 ovarian
  TGI: > 100 µM
SW-620 colon
  TGI: > 100 µM
UO-31 renal
  TGI: > 100 µM

## Cc1ccc(NC(=O)c2cc(S(=O)(=O)Nc3nnc(-c4ccccc4)c(-c4ccccc4)n3)c(SCc3ccccc3)cc2Cl)cc1
A549 NSCLC
  GI50: 18.4 µM
  TGI: 34.3 µM
HOP-62 NSCLC
  GI50: 36.1 µM
  TGI: > 100 µM
MDA-MB-435
  GI50: 15.9 µM
  TGI: 35 µM
PC-3 prostate
  GI50: 18.2 µM
  TGI: 49.1 µM
SK-MEL-5 melanoma
  GI50: 19.2 µM
  TGI: 37.6 µM
SK-OV-3 ovarian
  GI50: 22 µM
  TGI: 41.6 µM
SW-620 colon
  GI50: 25.1 µM
  TGI: 55.4 µM
UO-31 renal
  GI50: 25.3 µM
  TGI: 63.9 µM

## O=C1NC(=O)C2C(=O)NC(=O)C1C2Cc1ccco1 (stereo not given)
A549 NSCLC
  TGI: > 100 µM
MALME-3M melanoma
  TGI: > 100 µM
SF-539 CNS
  TGI: > 100 µM
SK-MEL-5 melanoma
  TGI: > 100 µM
SK-OV-3 ovarian
  TGI: > 100 µM
SW-620 colon
  TGI: > 100 µM
UO-31 renal
  TGI: > 100 µM

## CCCC(=O)CC(C)C(=O)C(=O)NC12CC3CC(CC(C3)C1)C2 (stereo not given)
A549 NSCLC
  TGI: > 100 µM
HOP-62 NSCLC
  TGI: > 100 µM
MALME-3M melanoma
  TGI: > 100 µM
SK-MEL-5 melanoma
  TGI: > 100 µM
SW-620 colon
  TGI: > 100 µM
UO-31 renal
  TGI: > 100 µM

## N#CC1CC(c2ccccc2)Nc2cc(Cl)ccc2N1 (stereo not given)
A549 NSCLC
  TGI: > 100 µM
HOP-62 NSCLC
  TGI: > 100 µM
MALME-3M melanoma
  TGI: > 100 µM
SF-539 CNS
  TGI: > 100 µM
SK-MEL-5 melanoma
  TGI: > 100 µM
SK-OV-3 ovarian
  TGI: > 100 µM
SW-620 colon
  TGI: > 100 µM
UO-31 renal
  TGI: > 100 µM

## CC(=O)Oc1ccc(C2=Cc3ccc(OC(C)=O)cc3OC2C)cc1 (stereo not given)
A549 NSCLC
  GI50: 6.29 µM
  TGI: > 100 µM
HOP-62 NSCLC
  GI50: 6.07 µM
  TGI: 57.2 µM
MDA-MB-435
  GI50: 0.63 µM
  TGI: 15 µM
PC-3 prostate
  GI50: 5.8 µM
  TGI: > 100 µM
SF-539 CNS
  GI50: 2.51 µM
  TGI: 9.07 µM
SK-MEL-5 melanoma
  GI50: 7.24 µM
  TGI: 29.9 µM
SK-OV-3 ovarian
  GI50: 6.56 µM
  TGI: 67 µM
SW-620 colon
  GI50: 6.33 µM
  TGI: 29.8 µM
UO-31 renal
  GI50: 2.05 µM
  TGI: 6.65 µM

## COc1ccc(/C=C2\C(=O)N(NC(C)=O)c3ccccc32)cc1
A549 NSCLC
  TGI: > 100 µM
HOP-62 NSCLC
  TGI: > 100 µM
MALME-3M melanoma
  TGI: > 100 µM
SF-539 CNS
  TGI: > 100 µM
SK-MEL-5 melanoma
  TGI: > 100 µM
SK-OV-3 ovarian
  TGI: > 100 µM
SW-620 colon
  TGI: > 100 µM
UO-31 renal
  TGI: > 100 µM

## COc1ccc(-c2[nH]c3ccc(OC)cc3c2C=C(C#N)C#N)cc1
A549 NSCLC
  GI50: 3.78 µM
  TGI: > 100 µM
HOP-62 NSCLC
  GI50: 3.34 µM
  TGI: > 100 µM
MALME-3M melanoma
  GI50: > 100 µM
  TGI: > 100 µM
PC-3 prostate
  GI50: 0.342 µM
  TGI: > 100 µM
SF-539 CNS
  GI50: 1.32 µM
  TGI: > 100 µM
SK-MEL-5 melanoma
  GI50: 0.321 µM
  TGI: > 100 µM
SK-OV-3 ovarian
  GI50: 0.731 µM
  TGI: > 100 µM
SW-620 colon
  GI50: 0.568 µM
  TGI: > 100 µM
UO-31 renal
  GI50: > 100 µM
  TGI: > 100 µM

— PubChem BioAssay (NCI)
